Laboratory results from US10710978B2, “STK4 inhibitors for treatment of hematologic malignancies” (Dana-Farber Cancer Institute, Inc., priority 2015, dated 2020).
Where two headings read alike, the source gives them in different places.

Tests used:
Test in all cases: KiNativ assay
Type in all cases: binding
[1] = system: AKT2, AKT3; conditions: H929 live cell; for % inhibition (range): 10 μM
Summary of the method: (§1)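 KiNativ profiling in live H929 cells; single concentration 10 μM, n=2; IC50 from MS measurement.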

[2] = target: CDK9 (Homo sapiens (Human), UniProt P50750); conditions: H929 live cell
Summary of the method: as §1

[3] = target: GPRK5 (Homo sapiens (Human), UniProt P34947); conditions: H929 live cell
Summary of the method: (§2)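 Live H929 cells, compound 10 μM, duplicate; KiNativ probe profiling; IC50 by MS.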

[4] = target: MAP2K2 (Homo sapiens (Human), UniProt P36507); conditions: H929 live cell
Sequence of MAP2K2 (P36507 whole entry): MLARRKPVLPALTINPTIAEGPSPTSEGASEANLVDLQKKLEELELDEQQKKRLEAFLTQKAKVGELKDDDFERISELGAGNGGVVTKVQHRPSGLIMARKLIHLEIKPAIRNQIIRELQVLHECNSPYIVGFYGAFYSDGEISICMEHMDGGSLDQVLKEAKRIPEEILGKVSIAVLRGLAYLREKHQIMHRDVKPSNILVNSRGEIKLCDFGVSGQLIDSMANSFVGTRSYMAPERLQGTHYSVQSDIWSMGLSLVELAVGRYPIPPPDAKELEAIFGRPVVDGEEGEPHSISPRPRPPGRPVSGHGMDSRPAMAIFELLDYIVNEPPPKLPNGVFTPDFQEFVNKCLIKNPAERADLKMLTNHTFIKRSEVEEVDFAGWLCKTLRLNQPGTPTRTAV
Summary of the method: as §2

[5] = target: PDK1 (Homo sapiens (Human), UniProt O15530); conditions: H929 live cell
Summary of the method: as §1

[6] = target: RIPK3 (Homo sapiens (Human), UniProt Q9Y572); conditions: H929 live cell
Sequence of RIPK3 (Q9Y572 whole entry): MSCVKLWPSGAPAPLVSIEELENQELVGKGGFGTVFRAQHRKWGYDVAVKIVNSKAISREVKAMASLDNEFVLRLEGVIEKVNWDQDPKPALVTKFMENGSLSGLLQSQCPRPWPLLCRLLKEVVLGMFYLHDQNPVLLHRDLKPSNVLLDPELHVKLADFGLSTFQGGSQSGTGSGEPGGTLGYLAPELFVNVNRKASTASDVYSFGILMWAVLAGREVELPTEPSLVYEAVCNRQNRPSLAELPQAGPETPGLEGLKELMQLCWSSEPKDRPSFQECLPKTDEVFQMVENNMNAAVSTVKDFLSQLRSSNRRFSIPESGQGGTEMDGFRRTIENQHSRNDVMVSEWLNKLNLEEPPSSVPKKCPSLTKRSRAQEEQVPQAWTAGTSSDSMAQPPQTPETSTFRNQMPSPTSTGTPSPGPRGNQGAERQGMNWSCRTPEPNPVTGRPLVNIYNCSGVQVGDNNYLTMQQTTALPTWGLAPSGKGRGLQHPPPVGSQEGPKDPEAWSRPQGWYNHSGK
Summary of the method: as §1

[7] = system: ROCK1, ROCK2; conditions: H929 live cell; for % inhibition (range): 10 μM
Summary of the method: as §1

[8] = target: SGK2 (Homo sapiens (Human), UniProt Q9HBY8); conditions: H929 live cell
Summary of the method: as §1

[9] = target: AGK (Homo sapiens (Human), UniProt Q53H12); conditions: H929 live cell
Summary of the method: as §1

[10] = target: ATM (Homo sapiens (Human), UniProt Q13315); conditions: H929 live cell
Sequence of ATM (Q13315 whole entry): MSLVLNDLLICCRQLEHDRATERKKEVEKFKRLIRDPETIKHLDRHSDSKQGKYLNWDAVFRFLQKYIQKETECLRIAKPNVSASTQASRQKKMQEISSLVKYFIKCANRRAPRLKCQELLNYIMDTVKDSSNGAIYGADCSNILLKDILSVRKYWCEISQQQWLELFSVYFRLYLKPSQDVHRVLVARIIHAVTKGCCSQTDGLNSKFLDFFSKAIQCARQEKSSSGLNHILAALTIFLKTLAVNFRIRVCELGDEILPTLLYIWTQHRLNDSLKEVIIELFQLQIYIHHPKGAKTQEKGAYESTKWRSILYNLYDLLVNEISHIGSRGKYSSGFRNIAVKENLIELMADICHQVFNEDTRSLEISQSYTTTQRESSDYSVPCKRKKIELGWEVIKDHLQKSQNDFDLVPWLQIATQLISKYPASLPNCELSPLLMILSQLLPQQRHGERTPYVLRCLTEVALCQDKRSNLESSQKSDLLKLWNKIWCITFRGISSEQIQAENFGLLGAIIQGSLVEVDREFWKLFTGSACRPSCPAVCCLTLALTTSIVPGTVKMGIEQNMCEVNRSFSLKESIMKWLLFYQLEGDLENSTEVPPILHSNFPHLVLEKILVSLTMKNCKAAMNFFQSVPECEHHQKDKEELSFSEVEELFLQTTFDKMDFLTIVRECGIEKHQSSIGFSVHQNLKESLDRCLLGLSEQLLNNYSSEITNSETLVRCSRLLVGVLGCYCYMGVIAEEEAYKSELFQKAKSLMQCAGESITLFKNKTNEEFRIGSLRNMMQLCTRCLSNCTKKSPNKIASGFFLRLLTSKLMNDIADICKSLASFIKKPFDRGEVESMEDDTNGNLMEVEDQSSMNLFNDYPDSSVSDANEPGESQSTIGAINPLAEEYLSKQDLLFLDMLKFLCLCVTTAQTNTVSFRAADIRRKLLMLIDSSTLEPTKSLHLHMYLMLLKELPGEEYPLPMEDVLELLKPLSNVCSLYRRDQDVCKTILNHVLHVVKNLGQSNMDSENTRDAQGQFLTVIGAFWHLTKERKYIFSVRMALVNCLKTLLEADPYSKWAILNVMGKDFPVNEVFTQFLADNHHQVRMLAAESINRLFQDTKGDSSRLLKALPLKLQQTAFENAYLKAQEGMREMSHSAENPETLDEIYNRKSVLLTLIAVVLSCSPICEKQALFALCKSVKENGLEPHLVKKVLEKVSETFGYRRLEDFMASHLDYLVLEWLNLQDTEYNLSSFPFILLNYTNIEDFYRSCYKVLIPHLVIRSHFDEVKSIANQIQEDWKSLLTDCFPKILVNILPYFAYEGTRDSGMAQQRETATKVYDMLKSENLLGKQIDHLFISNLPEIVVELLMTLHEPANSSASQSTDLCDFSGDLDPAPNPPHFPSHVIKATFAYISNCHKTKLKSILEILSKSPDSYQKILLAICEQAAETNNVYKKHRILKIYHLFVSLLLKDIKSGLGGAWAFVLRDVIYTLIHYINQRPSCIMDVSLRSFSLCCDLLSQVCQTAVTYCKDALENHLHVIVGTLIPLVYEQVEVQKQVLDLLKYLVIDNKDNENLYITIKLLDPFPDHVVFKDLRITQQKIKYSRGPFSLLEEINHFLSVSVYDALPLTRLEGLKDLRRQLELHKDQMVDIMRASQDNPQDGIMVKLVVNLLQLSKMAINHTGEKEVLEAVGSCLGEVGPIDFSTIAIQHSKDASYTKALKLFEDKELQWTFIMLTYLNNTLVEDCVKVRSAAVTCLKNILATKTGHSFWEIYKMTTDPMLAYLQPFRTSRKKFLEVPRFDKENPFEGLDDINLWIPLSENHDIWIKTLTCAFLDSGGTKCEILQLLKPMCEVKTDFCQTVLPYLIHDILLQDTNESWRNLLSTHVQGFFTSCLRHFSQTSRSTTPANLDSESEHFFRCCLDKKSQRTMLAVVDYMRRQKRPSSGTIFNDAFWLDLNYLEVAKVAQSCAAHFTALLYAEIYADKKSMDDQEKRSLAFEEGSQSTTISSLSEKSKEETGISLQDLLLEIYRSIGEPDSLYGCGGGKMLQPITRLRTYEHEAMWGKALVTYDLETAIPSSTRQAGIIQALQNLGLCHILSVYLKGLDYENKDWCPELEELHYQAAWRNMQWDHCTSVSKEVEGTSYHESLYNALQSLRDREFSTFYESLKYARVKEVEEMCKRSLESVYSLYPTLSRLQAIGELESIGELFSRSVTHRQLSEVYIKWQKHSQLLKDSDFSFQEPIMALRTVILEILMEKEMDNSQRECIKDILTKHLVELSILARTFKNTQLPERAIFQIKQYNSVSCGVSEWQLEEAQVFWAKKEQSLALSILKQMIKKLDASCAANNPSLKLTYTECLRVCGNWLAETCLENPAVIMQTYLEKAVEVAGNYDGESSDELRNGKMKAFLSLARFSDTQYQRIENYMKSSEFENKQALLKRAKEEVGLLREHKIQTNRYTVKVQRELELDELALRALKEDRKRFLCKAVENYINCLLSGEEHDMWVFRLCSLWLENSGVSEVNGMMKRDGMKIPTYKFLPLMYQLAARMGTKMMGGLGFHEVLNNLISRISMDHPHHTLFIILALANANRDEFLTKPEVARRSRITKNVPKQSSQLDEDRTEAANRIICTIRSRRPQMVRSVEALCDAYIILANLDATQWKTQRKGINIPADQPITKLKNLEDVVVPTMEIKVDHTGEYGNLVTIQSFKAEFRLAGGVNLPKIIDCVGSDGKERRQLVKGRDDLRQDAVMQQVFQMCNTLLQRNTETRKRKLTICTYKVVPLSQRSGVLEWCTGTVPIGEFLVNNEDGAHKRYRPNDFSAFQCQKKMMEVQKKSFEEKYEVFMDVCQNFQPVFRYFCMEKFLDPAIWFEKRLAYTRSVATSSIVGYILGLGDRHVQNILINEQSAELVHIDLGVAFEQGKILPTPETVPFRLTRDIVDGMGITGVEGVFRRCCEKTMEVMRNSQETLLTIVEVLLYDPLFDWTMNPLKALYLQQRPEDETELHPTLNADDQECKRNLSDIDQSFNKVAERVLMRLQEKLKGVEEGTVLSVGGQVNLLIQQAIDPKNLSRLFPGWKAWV
Summary of the method: as §1

[11] = target: CDK6 (Homo sapiens (Human), UniProt Q00534); conditions: H929 live cell
Method: Biochemical IC50s of the compounds of the present disclosure against various kinases were measured in a KiNativ assay. Compounds were screened in duplicate at 10 μM in H929 live cell. IC50 was measured via Mass spectroscopy (MS).

[12] = target: CaMK4 (Homo sapiens (Human), UniProt Q16566); conditions: H929 live cell
Summary of the method: as §2

[13] = target: Erk5 (Homo sapiens (Human), UniProt Q13164); conditions: H929 live cell
Summary of the method: as §2

[14] = target: LATS2 (Homo sapiens (Human), UniProt Q9NRM7); conditions: H929 live cell
Summary of the method: as §2

[15] = target: LZK (Homo sapiens (Human), UniProt O43283); conditions: H929 live cell
Sequence of LZK (O43283 whole entry): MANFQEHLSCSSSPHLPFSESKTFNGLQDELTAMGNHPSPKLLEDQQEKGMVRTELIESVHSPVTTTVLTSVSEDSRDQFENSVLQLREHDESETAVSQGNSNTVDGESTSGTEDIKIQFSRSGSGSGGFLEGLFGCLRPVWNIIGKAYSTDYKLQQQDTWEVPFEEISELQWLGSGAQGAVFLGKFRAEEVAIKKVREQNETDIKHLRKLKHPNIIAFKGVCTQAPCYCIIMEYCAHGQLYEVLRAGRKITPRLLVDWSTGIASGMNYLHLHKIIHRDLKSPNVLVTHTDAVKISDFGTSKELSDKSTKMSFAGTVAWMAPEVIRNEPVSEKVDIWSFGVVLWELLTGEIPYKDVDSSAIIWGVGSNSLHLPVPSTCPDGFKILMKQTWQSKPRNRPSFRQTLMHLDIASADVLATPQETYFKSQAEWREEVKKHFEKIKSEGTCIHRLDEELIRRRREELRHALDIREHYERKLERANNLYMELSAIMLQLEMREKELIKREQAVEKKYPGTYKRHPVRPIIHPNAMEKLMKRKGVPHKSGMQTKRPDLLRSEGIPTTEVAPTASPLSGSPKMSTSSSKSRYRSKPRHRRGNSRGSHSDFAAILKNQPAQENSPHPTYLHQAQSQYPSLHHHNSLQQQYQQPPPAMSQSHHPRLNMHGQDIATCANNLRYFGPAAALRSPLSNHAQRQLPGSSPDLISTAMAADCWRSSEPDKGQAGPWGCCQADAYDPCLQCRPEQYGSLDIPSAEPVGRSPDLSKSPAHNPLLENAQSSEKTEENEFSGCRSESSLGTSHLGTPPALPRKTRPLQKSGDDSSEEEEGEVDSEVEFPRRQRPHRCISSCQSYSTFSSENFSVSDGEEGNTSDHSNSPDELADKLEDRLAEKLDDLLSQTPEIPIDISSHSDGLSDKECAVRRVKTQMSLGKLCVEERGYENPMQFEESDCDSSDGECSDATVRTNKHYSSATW
Summary of the method: as §1

[16] = target: MAP3K3 (Homo sapiens (Human), UniProt Q99759); conditions: H929 live cell
Summary of the method: as §1

[17] = system: MAST1, MAST2; conditions: H929 live cell; for % inhibition: 10 μM, range class
Summary of the method: as §2

[18] = target: MELK (Homo sapiens (Human), UniProt Q14680); conditions: H929 live cell
Summary of the method: as §2

[19] = target: MLK4 (Homo sapiens (Human), UniProt Q5TCX8); conditions: H929 live cell
Summary of the method: as §2

[20] = target: PIP4K2B (Homo sapiens (Human), UniProt P78356); conditions: H929 live cell
Summary of the method: as §1

[21] = target: TAK1 (Homo sapiens (Human), UniProt O43318); conditions: H929 live cell
Summary of the method: as §2

[22] = target: ULK3 (Homo sapiens (Human), UniProt Q6PHR2); conditions: H929 live cell
Summary of the method: as §2

[23] = range class, read-out: % inhibition

Compound: Nc1ncc(-c2cccc([N+](=O)[O-])c2F)cc1-c1ccc2c(c1)CCNC2=O [Compound I-9, 6-(2-amino-5-(2-fluoro-3-nitrophenyl)pyridin-3-yl)-3,4-dihydroisoquinolin-1(2H)-one]
- % inhibition (range) [1]: 0.0%
- inhibition (10 μM) [1]: −1.3%
- inhibition at 10 µM ([2]; read-out: % inhibition (range)): 50 to 75%
- inhibition at 10 µM ([2]; read-out: inhibition (10 μM)): 65.8%
- inhibition at 10 µM ([3]; read-out: % inhibition (range)): 0%
- inhibition at 10 µM ([3]; read-out: inhibition (10 μM)): 19.6%
- inhibition at 10 µM ([4]; read-out: % inhibition (range)): 0%
- inhibition at 10 µM ([4]; read-out: inhibition (10 μM)): -8.7%
- inhibition at 10 µM ([5]; read-out: % inhibition (range)): 0%
- inhibition at 10 µM ([5]; read-out: inhibition (10 μM)): 28.1%
- inhibition at 10 µM ([6]; read-out: % inhibition (range)): 0%
- inhibition at 10 µM ([6]; read-out: inhibition (10 μM)): -33.4%
- % inhibition (range) [7]: 0.0%
- inhibition (10 μM) [7]: −55.8%
- inhibition at 10 µM ([8]; read-out: % inhibition (range)): 0%
- inhibition at 10 µM ([8]; read-out: inhibition (10 μM)): -5.4%

Compound: Nc1ncc(-c2cccc3ncsc23)cc1-c1ccc2c(c1)CCNC2=O [Compound I-13, 6-(2-amino-5-(benzo[d]thiazol-7-yl)pyridin-3-yl)-3,4-dihydroisoquinolin-1(2H)-one]
- % inhibition (range) [1]: 0.0%
- inhibition (10 μM) [1]: 19.0%
- inhibition at 10 µM ([2]; read-out: % inhibition (range)): 35 to 50%
- inhibition at 10 µM ([2]; read-out: inhibition (10 μM)): 41.1%
- inhibition at 10 µM ([3]; read-out: % inhibition (range)): 0%
- inhibition at 10 µM ([3]; read-out: inhibition (10 μM)): -12%
- inhibition at 10 µM ([4]; read-out: % inhibition (range)): 0%
- inhibition at 10 µM ([4]; read-out: inhibition (10 μM)): -36.7%
- inhibition at 10 µM ([5]; read-out: % inhibition (range)): 0%
- inhibition at 10 µM ([5]; read-out: inhibition (10 μM)): 17.5%
- inhibition at 10 µM ([6]; read-out: % inhibition (range)): 0%
- inhibition at 10 µM ([6]; read-out: inhibition (10 μM)): -25.9%
- % inhibition (range) [7]: 0.0%
- inhibition (10 μM) [7]: −11.4%
- inhibition at 10 µM ([8]; read-out: % inhibition (range)): 0%
- inhibition at 10 µM ([8]; read-out: inhibition (10 μM)): 22.1%

Compound: CN(C1CC1)S(=O)(=O)c1ccc(-c2cnc(N)c(-c3ccc4c(c3)CCNC4=O)c2)c(F)c1 [Compound I-28, 4-(6-amino-5-(1-oxo-1,2,3,4-tetrahydroisoquinolin-6-yl)pyridin-3-yl)-N-cyclopropyl-3-fluoro-N-methylbenzenesulfonamide]
- % inhibition (range) [1]: 0.0%
- inhibition (10 μM) [1]: 14.9%
- inhibition at 10 µM ([2]; read-out: % inhibition (range)): 0%
- inhibition at 10 µM ([2]; read-out: inhibition (10 μM)): 28.9%
- inhibition at 10 µM ([3]; read-out: % inhibition (range)): 0%
- inhibition at 10 µM ([3]; read-out: inhibition (10 μM)): 10.7%
- inhibition at 10 µM ([4]; read-out: % inhibition (range)): 0%
- inhibition at 10 µM ([4]; read-out: inhibition (10 μM)): -23.7%
- inhibition at 10 µM ([5]; read-out: % inhibition (range)): 0%
- inhibition at 10 µM ([5]; read-out: inhibition (10 μM)): 5.9%
- inhibition at 10 µM ([6]; read-out: inhibition (10 μM)): -121%
- % inhibition (range) [7]: 0.0%
- inhibition (10 μM) [7]: 20.8%
- inhibition at 10 µM ([8]; read-out: % inhibition (range)): 0%
- inhibition at 10 µM ([8]; read-out: inhibition (10 μM)): -30.3%

Compound: COc1cc(NS(=O)(=O)C2CC2)ccc1-c1cnc(N)c(-c2ccc3c(c2)CCNC3=O)c1 [Compound I-50, N-(4-(6-amino-5-(1-oxo-1,2,3,4-tetrahydroisoquinolin-6-yl)pyridin-3-yl)-3-methoxyphenyl) cyclopropanesulfonamide]
- inhibition at 10 µM [9, 23]: 0%
- inhibition at 10 µM ([9]; read-out: inhibition (10 μM)): 11.5%
- inhibition at 10 µM [10, 23]: 0%
- inhibition at 10 µM ([10]; read-out: inhibition (10 μM)): 34.6%
- inhibition at 10 µM [11, 23]: 0%
- inhibition at 10 µM ([11]; read-out: inhibition (10 μM)): 15%
- inhibition at 10 µM [12, 23]: 0%
- inhibition at 10 µM ([12]; read-out: inhibition (10 μM)): -17.9%
- inhibition at 10 µM [13, 23]: 0%
- inhibition at 10 µM ([13]; read-out: inhibition (10 μM)): -2.8%
- inhibition at 10 µM [14, 23]: 0%
- inhibition at 10 µM ([14]; read-out: inhibition (10 μM)): 1.1%
- inhibition at 10 µM [15, 23]: 0%
- inhibition at 10 µM ([15]; read-out: inhibition (10 μM)): 1.3%
- inhibition at 10 µM [16, 23]: 0%
- inhibition at 10 µM ([16]; read-out: inhibition (10 μM)): -5.7%
- % inhibition [17]: 0.0%
- inhibition (10 μM) [17]: 2.6%
- inhibition at 10 µM [18, 23]: 35 to 40%
- inhibition at 10 µM ([18]; read-out: inhibition (10 μM)): 45.9%
- inhibition at 10 µM [19, 23]: 0%
- inhibition at 10 µM ([19]; read-out: inhibition (10 μM)): 30.2%
- inhibition at 10 µM [20, 23]: 0%
- inhibition at 10 µM ([20]; read-out: inhibition (10 μM)): -31.5%
- inhibition at 10 µM [21, 23]: 35 to 40%
- inhibition at 10 µM ([21]; read-out: inhibition (10 μM)): 39.1%
- inhibition at 10 µM [22, 23]: 0%
- inhibition at 10 µM ([22]; read-out: inhibition (10 μM)): -14.2%

Compound: Nc1ncc(-c2ccc(NS(=O)(=O)C3CC3)cc2F)cc1-c1ccc2c(c1)CCNC2=O [Compound I-51, N-(4-(6-amino-5-(1-oxo-1,2,3,4-tetrahydroisoquinolin-6-yl)pyridin-3-yl)-3-fluorophenyl) cyclopropanesulfonamide]
- inhibition at 10 µM [9, 23]: 0%
- inhibition at 10 µM ([9]; read-out: inhibition (10 μM)): -12.1%
- inhibition at 10 µM [10, 23]: 35 to 40%
- inhibition at 10 µM ([10]; read-out: inhibition (10 μM)): 40.3%
- inhibition at 10 µM [11, 23]: 0%
- inhibition at 10 µM ([11]; read-out: inhibition (10 μM)): 10.7%
- inhibition at 10 µM [12, 23]: 0%
- inhibition at 10 µM ([12]; read-out: inhibition (10 μM)): -61.2%
- inhibition at 10 µM [13, 23]: 0%
- inhibition at 10 µM ([13]; read-out: inhibition (10 μM)): -13.2%
- inhibition at 10 µM [14, 23]: 0%
- inhibition at 10 µM ([14]; read-out: inhibition (10 μM)): 16.1%
- inhibition at 10 µM [15, 23]: 0%
- inhibition at 10 µM ([15]; read-out: inhibition (10 μM)): 11.3%
- inhibition at 10 µM [16, 23]: 0%
- inhibition at 10 µM ([16]; read-out: inhibition (10 μM)): -29.3%
- % inhibition [17]: 0.0%
- inhibition (10 μM) [17]: −2.9%
- inhibition at 10 µM [18, 23]: 35 to 40%
- inhibition at 10 µM ([18]; read-out: inhibition (10 μM)): 49.5%
- inhibition at 10 µM [19, 23]: 0%
- inhibition at 10 µM ([19]; read-out: inhibition (10 μM)): 14.2%
- inhibition at 10 µM [20, 23]: 0%
- inhibition at 10 µM ([20]; read-out: inhibition (10 μM)): -47.1%
- inhibition at 10 µM [21, 23]: 0%
- inhibition at 10 µM ([21]; read-out: inhibition (10 μM)): 30%
- inhibition at 10 µM [22, 23]: 0%
- inhibition at 10 µM ([22]; read-out: inhibition (10 μM)): 1.8%

Compound: Nc1ncc(-c2ccc(NS(=O)(=O)C3CC3)cc2OC2CCCCC2)cc1-c1ccc2c(c1)CCNC2=O [Compound I-65, N-(4-(6-amino-5-(1-oxo-1,2,3,4-tetrahydroisoquinolin-6-yl)pyridin-3-yl)-3-(cyclohexyloxy)phenyl) cyclopropanesulfonamide]
- inhibition at 10 µM [9, 23]: 0%
- inhibition at 10 µM ([9]; read-out: inhibition (10 μM)): -21.2%
- inhibition at 10 µM [10, 23]: 35 to 40%
- inhibition at 10 µM ([10]; read-out: inhibition (10 μM)): 48%
- inhibition at 10 µM [11, 23]: 0%
- inhibition at 10 µM ([11]; read-out: inhibition (10 μM)): 0.5%
- inhibition at 10 µM [12, 23]: 0%
- inhibition at 10 µM ([12]; read-out: inhibition (10 μM)): -21%
- inhibition at 10 µM [13, 23]: 0%
- inhibition at 10 µM ([13]; read-out: inhibition (10 μM)): -6.5%
- inhibition at 10 µM [14, 23]: 0%
- inhibition at 10 µM ([14]; read-out: inhibition (10 μM)): -0.2%
- inhibition at 10 µM [15, 23]: 35 to 40%
- inhibition at 10 µM ([15]; read-out: inhibition (10 μM)): 43.1%
- inhibition at 10 µM [16, 23]: 0%
- inhibition at 10 µM ([16]; read-out: inhibition (10 μM)): -28.3%
- % inhibition [17]: 0.0%
- inhibition (10 μM) [17]: 3.0%
- inhibition at 10 µM [18, 23]: 50 to 75%
- inhibition at 10 µM ([18]; read-out: inhibition (10 μM)): 56.5%
- inhibition at 10 µM [19, 23]: 50 to 75%
- inhibition at 10 µM ([19]; read-out: inhibition (10 μM)): 56.9%
- inhibition at 10 µM [20, 23]: 0%
- inhibition at 10 µM ([20]; read-out: inhibition (10 μM)): -8.9%
- inhibition at 10 µM [21, 23]: 35 to 40%
- inhibition at 10 µM ([21]; read-out: inhibition (10 μM)): 35%
- inhibition at 10 µM [22, 23]: 0%
- inhibition at 10 µM ([22]; read-out: inhibition (10 μM)): 30.6%
